What is called CL/F is the apparent clearance, not corrected for the fraction that reaches the circulation. Broadly, the Cmax is the peak of the concentration-time curve.

The conditions of data set [1]: cited from earlier work.
For data set [2] the following is noted: rats, single dose of the conjugate with trastuzumab, radiolabeled; cited from earlier work.
A short description of data set [3]: Ribociclib plasma pharmacokinetics with T-DM1 (LC-MS/MS, noncompartmental). It counts as in vivo, human. To be noted: for AUC: read-out: AUC24. The text has this:
Additional samples were collected according to this same schedule after the drug was taken for at least 8 days consecutive without interruption to define its steady-state pharmacokinetics. […] The assay was validated and applied to the analysis of study samples according to the recommendations in the current U.S. Food and Drug Administration Guidance for Industry on Bioanalytical Method Validation (https://www.fda.gov/drugs/-guidance-compliance-regulatory-information/guidances-drugs). […] Actual time points were calculated as the difference between the blood sample collection time and the time that the drug was taken. The plasma concentration-time data were analyzed by noncompartmental methods using model 200 for extravascular drug input in WinNonlin Professional version 5.0.1 (Pharsight Corp, Mountain View, CA). The area under the plasma concentration-time curve from the time of dosing to the time of the last sample collected prior to administration of the next dose (AUC24) was estimated using the linear-log trapezoidal method. Total oral clearance (CL/F) was calculated as the dose divided by the AUC24 for the dose given on days 19–21. Pharmacokinetic parameters are reported as the geometric mean (geometric CV%) of the values for individual patients at each dose level. GraphPad Prism for Windows, version 8.4.3 (GraphPad Software, La Jolla, CA) was used for the statistical analysis and graphical presentation of the pharmacokinetic data.

The conditions of data set [4]: single agent, cited from earlier work.
Where [5] appears, read: 300 mg, dose no. 11-12 (steady state), 3 patients, geometric mean.
The mark [6] stands for this setting: 400 mg, dose no. 13 (steady state), 1 patient.
[7] abbreviates: 500 mg, dose no. 12 (steady state), 2 patients, geometric mean.
[8] abbreviates: 600 mg, dose no. 13 (steady state), 1 patient.

Read-outs that look alike come from different tables or passages of the source.

With `COc1cc2cc(c1Cl)N(C)C(=O)C[C@H](OC(=O)[C@H](C)N(C)C(=O)CCS)[C@]1(C)O[C@H]1[C@H](C)[C@@H]1C[C@@](O)(NC(=O)O1)[C@H](OC)/C=C/C=C(\C)C2` [DM1], the Half-life entry in data set [1] is on record as “approximately 4 days”. The “Time to complete clearance” value in data set [2] is on record as at most 5 days.
In the case of `CN(C)C(=O)c1cc2cnc(Nc3ccc(N4CCNCC4)cn3)nc2n1C1CCCC1` [ribociclib], the Cmin result in data set [3] (300 mg, dose no. 1, 3 patients, geometric mean, lowest calibration concentration 1.0 ng/mL) is reported as “< LLQ”; in data set [3] (setting [5]) it was 141.7 ng/mL; in data set [3] (400 mg, dose no. 1, 3 patients, geometric mean, lowest calibration concentration 1.0 ng/mL) it was “< LLQ”; in data set [3] (setting [6]), 125.6 ng/mL; in data set [3] (500 mg, dose no. 1, 3 patients, geometric mean, lowest calibration concentration 1.0 ng/mL), “< LLQ”; in data set [3] (setting [7]), 178.7 ng/mL. Also, the Cmin entry in data set [3] (600 mg, dose no. 1, 3 patients, geometric mean, lowest calibration concentration 1.0 ng/mL) is “< LLQ”; in data set [3] (setting [8]), 493.9 ng/mL. Moreover, the CL/F was found to be 38.6 L/h in data set [3] (setting [5]), 47.4 L/h in data set [3] (setting [6]), 55.8 L/h in data set [3] (setting [7]) and 27.3 L/h in data set [3] (setting [8]). In addition, in data set [3] (setting [7]), the AUC24 was 8,958 ng•h/mL. In addition, the Cmax in data set [3] (setting [7]) was determined as 702.8 ng/mL; in data set [3] (human, plasma, oral, 300 mg, dose no. 1, 3 patients, geometric mean, read-out: Cmax) it was 505 ng/mL; in data set [3] (human, plasma, oral, 300 mg, dose no. 11-12 (steady state), 3 patients, geometric mean, read-out: Cmax), 608 ng/mL; in data set [3] (human, plasma, oral, 400 mg, dose no. 1, 3 patients, geometric mean, read-out: Cmax) it was 735 ng/mL; in data set [3] (human, plasma, oral, 400 mg, dose no. 13 (steady state), 1 patient, read-out: Cmax) it was 871 ng/mL; in data set [3] (human, plasma, oral, 600 mg, dose no. 1, 3 patients, geometric mean, read-out: Cmax) it was 1270 ng/mL. Further, the Cmax in data set [3] (human, plasma, oral, 600 mg, dose no. 13 (steady state), 1 patient, read-out: Cmax) amounted to 1740 ng/mL. Moreover, the “Overall geometric mean apparent oral clearance” value in data set [3] (from AUC24 at steady state, 7 patients, CV 28.1%) is listed as 42.1 L/h. For the same molecule, the AUC in data set [3] (human, plasma, oral, 300 mg, dose no. 1, 3 patients, geometric mean) is 5330 ng·h/mL; in data set [3] (human, plasma, oral, 300 mg, dose no. 11-12 (steady state), 3 patients, geometric mean), 7770 ng·h/mL; in data set [3] (human, plasma, oral, 400 mg, dose no. 1, 3 patients, geometric mean), 7980 ng·h/mL; in data set [3] (human, plasma, oral, 400 mg, dose no. 13 (steady state), 1 patient), 8430 ng·h/mL; in data set [3] (human, plasma, oral, 500 mg, dose no. 1, 3 patients, geometric mean) it was 4830 ng·h/mL; in data set [3] (human, plasma, oral, 600 mg, dose no. 1, 3 patients, geometric mean), 11800 ng·h/mL. Further, the AUC in data set [3] (human, plasma, oral, 600 mg, dose no. 13 (steady state), 1 patient) is 22000 ng·h/mL. For the same molecule, in data set [3] (present trial versus single-agent 400 and 600 mg QD), the “Apparent oral clearance greater than with single agent” value is given as 19–65%. Besides, the “Geometric mean apparent oral clearance” value in data set [4] (400 mg QD, four patients, CV 59.2%) is 35.3 L/h; in data set [4] (600 mg QD, 53 patients, CV 65.7%), 25.5 L/h.

The values are drawn from PMC8339067 (NPJ Breast Cancer, 2021).
